This is an account of results in patent publication EP0548370A1, “DRUG FOR PREVENTING AND/OR TREATING ALLERGIC DISEASE” (MOCHIDA PHARMACEUTICAL CO., LTD., priority 1991, dated 1993).

Data set [1] has as its system chronic urticaria. The settings on record: of 2 cases; cited from earlier work.
In data set [2] the test system is IgE antibodies. The data set is described as follows: Effect on IgE antibody production in ovalbumin-sensitized mice (ELISA). It counts as in vivo, BALB/c line male mice. The settings on record: for IgE antibody yield (% control): 7 times, blood 14 days after sensitization. As to the method:
That is, 4 mg of aluminum hydroxide to which 10 μg of ovalbumin has been adsorbed was intraperitoneally administered to 5 individuals per group of BALB/c line male mice (body weight, 21 - 25 g) to effect sensitization. Immediately after the sensitization, a 5% acacia aqueous solution containing a varied concentration of tofisopam or a 5% acacia aqueous solution containing no tofisopam (control) was administered orally once a day, 7 times in total. After 14 days of the sensitization, blood samples were collected to measure produced amounts of various types of immunoglobulin by means of enzyme-linked immunosorbent assay (ELISA). Production yield of IgE antibodies was measured in the following manner. That is, a blood plasma sample was added to immobilized anti-mouse IgE antibodies to allow IgE to be linked, followed by the reaction with biotin-labeled anti-mouse IgE antibodies and avidin-labeled horseradish peroxidase, and then the amount of produced IgE antibodies was measured based on the horseradish peroxidase activity as a marker (Men'eki-to-[…], vol.15, pp.211 - 216, 1988).
A general note: In an ELISA, binding on a coated surface is turned into a signal by an enzyme label.

The test system of data set [3] is psychogenic bronchial asthma. To be noted: of 26 cases; with simultaneous β₂ stimulant and theophylline preparation; cited from earlier work.
For data set [4] the following is noted: in vivo; cited from earlier work.
Data set [5] concerns chronic urticaria. The settings on record: of 14 cases; with antihistaminic drug, Chinese orthodox medicine and the like; cited from earlier work.
Data set [6] deals with bronchial asthma. The settings on record: 16 cases of bronchial asthma patients; cited from earlier work.
Data set [7] relates to IgG₁ antibodies. The data set is described as follows: Effect on IgG₁ antibody production in ovalbumin-sensitized mice (ELISA). The settings on record: for IgG₁ antibody yield (% control): 7 times, blood 14 days after sensitization. It counts as in vivo, BALB/c line male mice. As to the method: (§1) That is, 4 mg of aluminum hydroxide to which 10 µg of ovalbumin has been adsorbed was intraperitoneally administered to 5 individuals per group of BALB/c line male mice (body weight, 21 - 25 g) to effect sensitization. Immediately after the sensitization, a 5% acacia aqueous solution containing a varied concentration of tofisopam or a 5% acacia aqueous solution containing no tofisopam (control) was administered orally once a day, 7 times in total. After 14 days of the sensitization, blood samples were collected to measure produced amounts of various types of immunoglobulin by means of enzyme-linked immunosorbent assay (ELISA). Production yields of IgG₁ and IgM antibodies were measured in the following manner. That is, a blood plasma sample was added to immobilized anti-mouse IgG₁ or IgM antibodies to allow IgG₁ antibodies or IgM antibodies to be linked, followed by the reaction with horseradish peroxidase-labeled anti-mouse IgG₁ antibodies or horseradish peroxidase-labeled anti-mouse IgM antibodies, and then the amount of produced IgG₁ or IgM antibodies was measured based on the horseradish peroxidase activity as a marker.

The subject of data set [8] is rat experimental asthma. Nature of the data set: Rat experimental asthma, airway resistance by over flow technique. Type of data set: in vivo, Wister line male rats. As to the method: That is, 2 x 10¹⁰ cells of inactivated Bordetella pertussis and 1 mg of ovalbumin were respectively administered intraperitoneally and intramuscularly to 5 individuals per group of Wister line male rats (body weight, 194 - 210 g) to effect sensitization. Immediately after the sensitization, a 5% acacia aqueous solution containing a varied concentration of tofisopam or a 5% acacia aqueous solution containing no tofisopam (control) was administered orally once a day, 14 times in total.
After 14 days of the sensitization, ovalbumin was administered to the sensitized rats intravenously at a dose of 0.5 mg/kg, and the increasing degree of airway resistance was measured by means of the over flow technique (Arch. Exp. Pathol. Pharmak., vol.195, pp.71 - 74, 1974). The thus obtained inhibition rate of airway contraction, when the result of the control test is defined as 100, is shown in Table 4.

Data set [9] has as its system IgM antibodies. Nature of the data set: Effect on IgM antibody production in ovalbumin-sensitized mice (ELISA). Type of data set: in vivo, BALB/c line male mice. To be noted: for IgM antibody yield (% control): 7 times, blood 14 days after sensitization. As to the method:
as §1

The mark [10] stands for this setting: 100 mg/kg/day orally once a day.
Setting [11] is: 300 mg/kg/day orally once a day.
[12] abbreviates: 100 or 300 mg/kg/day orally for 7 days.

Broadly, the inhibition is the percentage by which the read-out fell short of the control.

For the compound `CCC1C(C)=NN=C(c2ccc(OC)c(OC)c2)c2cc(OC)c(OC)cc21` (stereo not drawn) [Tofisopam, 1-(3,4-dimethoxyphenyl)-5-ethyl-7,8-dimethoxy-4-methyl-5H-2,3-benzodiazepine], the cases improved significantly in data set [1] is recorded as 1. The “IgE antibody yield (% control)” value in data set [2] (setting [10]) is on record as 66 % control; in data set [2] (setting [11]), 56 % control. Also, the inhibition at 100 mg/kg in [2] (Mus musculus, po, 168 h, 100 mg/kg/day orally for 7 days) was about 34%. The inhibition at 300 mg/kg in data set [2] (Mus musculus, po, 168 h, 300 mg/kg/day orally for 7 days) is about 44%. Moreover, the cases improved entry in data set [3] is reported as “one”; in data set [5], 8. Besides, in [4], the “acute, subacute and chronic toxicities” value was “confirmed safety of the compound”. Also, the “efficacy in objective findings” value in data set [6] is 25%. For the same compound, the “efficacy in subjective symptoms” value in data set [6] is given as 50%. The entries for the “IgG₁ antibody yield (% control)” value in data set [7] (setting [10]) and in data set [7] (setting [11]) were 113 % control and 111 % control, respectively. Further, the “influence upon the production of IgG₁ antibodies” value in data set [7] (setting [12]) was “hardly exerts influence”. In addition, the airway reaction result in data set [8] (100 mg/kg/day orally for 14 days) is recorded as “can inhibit the airway reaction”. The “Inhibition rate (%) of airway contraction” value in [8] (100 mg/kg/day orally once a day, 14 times, ovalbumin 0.5 mg/kg intravenously 14 days after sensitization) came to 27%. Moreover, the results for the “IgM antibody yield (% control)” value in [9] (setting [10]) and in data set [9] (setting [11]) were 97 % control and 87 % control, respectively. For the same compound, the “influence upon the production of IgM antibodies” value in data set [9] (setting [12]) was “hardly exerts influence”.
